Measurements taken from patent US20240366723A1, “COMBINATION THERAPY FOR THE TREATMENT OF ENTERIC NEUROPATHIES” (TRANSFERT PLUS, LIMITED PARTNERSHIP, priority 2021, published 2024).
Entries after “also recorded” stand apart in the source; their conditions may differ.

Legend:
[1] = system: Homozygous Holstein^Tg/Tg mice; experiment: Survival of Hol^Tg/Tg mice after enema treatment (model of Trisomy 21 [Collagen VI]-associated HSCR); assay type: in vivo, mouse
Experimental: Mice. Homozygous Holstein^Tg/Tg mice (Hol^Tg/Tg; a model for Trisomy 21 [Collagen VI]-associated HSCR) were treated with either 10 μl enemas of GDNF (1 μg/μl), or 10 μl of GDNF combined with 5 mM of amino-butyrate acid (Butyrate) or other growth factors at 1 μg/μl, or vehicle (1×PBS) as control. Enemas were administered once a day from postnatal day (P) 4 until P8, and mice were monitored daily until P60 or megacolon-associated death. Survival graphs and statistical analyses were generated with GraphPad Prism software. One-way ANOVA followed by post-hoc Tukey multiple comparison test was carried out, and significance level was set at P<0.05. Number of biological replicates (n) of each cohort is indicated where relevant in Figures.
It was tested whether molecules known to have neurotrophic effects could improve the effect of GDNF on survival in a mouse model for Trisomy 21 [Collagen VI]-associated HSCR) (39).
The molecules that were tested in the present study are: Bone morphogenetic protein 4 (BMP4), Nerve growth factor (NGF), Brain-derived neurotrophic factor (BDNF), Mesencephalic Astrocyte Derived Neurotrophic Factor (MANF), Cerebral Dopamine Neurotrophic Factor (CDNF), Epidermal Growth Factor (EGF), Neurturin (NRTN), Fibroblast growth factor 2 (FGF2), butyrate and Retinoic Acid (RA).

[2] = literature reports, various models; cited from earlier work
[3] = system: mouse model for Trisomy 21 [Collagen VI]-associated HSCR; conditions: previous study, same mouse model; Soret et al., Gastroenterology 2020, Supplementary FIG. 1G; cited from earlier work

| Molecule | Reported neurotrophic activity [2] | survival of mice, combination with GDNF relative to GDNF alone [3] | further results |
| --- | --- | --- | --- |
| CCCC(=O)O [butyrate] |  |  | effect on survival of combination with GDNF relative to GDNF alone ([1]; 10 μl enema of GDNF 1 μg/μl combined with 5 mM butyrate or other growth factor at 1 μg/μl, once a day P4 until P8, monitored until P60): significantly potentiate the effect of recombinant GDNF; also recorded: acts synergistically with GDNF to improve survival; effect on mouse survival, substance alone ([1]; 10 μl enema once a day P4 until P8, butyrate 5 mM, compared with vehicle (1×PBS), monitored until P60): did not have any effect on survival; also recorded: no effect on mouse survival |
| EGF: Epidermal Growth Factor | EGF is chemoattractant and chemokinetic molecule for |  |  |
| O=C1O[C@H]([C@@H](O)CO)C(O)=C1O [vitamin C] |  | did not improve the survival of mice relative to GDNF alone |  |
| endothelin 3: molecule known to have neurotrophic effects, combined with GDNF in a previous study |  | did not improve the survival of mice relative to GDNF alone |  |
| FGF2: Fibroblast growth factor 2 | FGF2 enhances the proliferation and differentiation of |  |  |
| CDNF: Cerebral Dopamine Neurotrophic Factor | CDNF is essential for enteric neuronal development |  |  |
| NCCc1c[nH]c2ccc(O)cc12 [serotonin] |  | did not improve the survival of mice relative to GDNF alone |  |
